Measurements taken from US20150094264A1, “USE OF OBESTATIN FOR MUSCLE REGENERATION” (UNIVERSIDADE DE SANTIAGO DE COMPOSTELA, priority 2012, published 2015).

Key:
Akt = experiment: Activation of Akt [pAkt(S473)] by obestatin in L6E9 myoblasts, immunoblot; type: cell-based, rat
Protocol: (§1) FIG. 1. Activation of regulatory enzymes of mitogenesis and myogenesis by obestatin in L6E9 myoblasts and myotubes. Effect of obestatin on activity of regulatory enzymes of the mitogenic capacity (ERK 1/2), metabolic capacity (Akt and AMPK) and myogenic capacity (Akt and p38). Based on a dose-response study, the saturating dose for the maximum enzymatic activation is established for a concentration of 5 nM. […] Inactivation of AMPK is described in both cell models. The activation profile discovers bimodal characteristics for the action of obestatin: 1.—mitogenic activation in myoblasts; and, 2.—myogenic activation. The immunoblots are representative of 6 independent assays.
(§2) The studies were performed based on the use of L6E9 rat myoblasts which were maintained in growth medium (GM) formed by DMEM (Dulbecco's Modified Eagle Medium) supplemented with 10% fetal bovine serum (FBS), 100 U/mL penicillin, and 100 U/mL streptomycin. For the differentiation, the cells were cultured at 80-100% of confluence in GM and it was replaced for differentiation medium (DM) formed by DMEM supplemented with 2% FBS, 100 U/mL penicillin, and 100 U/mL streptomycin during 6 days.
(§3) The tissue or cell samples were directly lysed in RIPA buffer [Tris-HCl (pH 7.2), 50 mM; NaCl, 150 mM; EDTA, 1 mM; NP-40, 1% (v/v); Sodium deoxycholate, 0.25% (w/v); protease inhibitors (Sigma); phosphatise inhibitors (Sigma)]. The lysates were clarified by centrifugation (14,000×g during 15 min at 4° C.) and the protein concentration was quantified using QuantiPro™ BCA assay kit (Sigma). For immunoblot, equal amounts of protein were loaded which were fractionated in SOS-PAGE gels and transferred to nitrocellulose membranes. The immunoreactive bands were detected by chemiluminescence (Pierce ECL Western Blotting Substrate; Thermo Scientific, Ill., USA).
(§4) To define the mitogenic and myogenic effect of obestatin, the activation capacity was studied of intracellular targets regulating proliferation (ERK1/2) and/or differentiation (p38 and Akt). […]

ERK 1/2 = experiment: Activation of ERK 1/2 [pERK1/2(T202/Y204)] by obestatin in L6E9 myoblasts, immunoblot; type: cell-based, rat
Protocol: as §1, §2, §3, §4

[1] = system: damaged tibialis anterior of mouse; experiment: Local administration in damaged tibialis anterior of mouse: myogenic markers, immunoblot; type: in vivo, Swiss mice; details: 300 nmol/kg weight local, 24 h intervals
Protocol: FIG. 8. Effect of the exogenous administration of obestatin in the damaged tibialis anterior of mouse (animal model) on the myogenic markers PAX-7 (A), MyoD (B), myogenin (C) and eMHC (D). Effect of the local exogenous administration of obestatin (300 nmol/kg/24 h) on early and later markers of myogenesis in damaged skeletal muscle tissue (tibialis anterior) in mice. The protein levels are expressed as % of the control obtained from the group of animals with administration of PBS (n=10 per group; mean±standard error; *, #, p<0.005).
as §3
(§5) The mice (30 g; n=50) were maintained in 12 h light-darkness cycled with free access to standard diet and water. To induce the muscle damage, the tibialis anterior muscle (TA) was extracted under anaesthesia and subjected to three cycles of damage due to cold contact applying along the length of the muscle a metal bar cooled in liquid nitrogen. The damaged muscles were treated locally with obestatin injection (300 nmol/kg weight) or the corresponding vehicle (PBS; control) during the times indicated in 24 h intervals. The animals were assigned to one of the five experimental groups (n=10/group): 1) control group (saline); 2) obestatin group 48 h (obestatin 300 nmol/kg weight/24 h); 3) obestatin group 96 h (obestatin 300 nmol/kg weight/24 h); 4) obestatin group 168 h (obestatin 300 nmol/kg weight/24 h); and, obestatin group 240 h (obestatin 300 nmol/kg weight/24 h). After the indicated times, the mice were sacrificed by cervical dislocation under anaesthetic treatment and the tissues were extracted for immunoblot and immunohistochemical analyses.
The estimate of the therapeutic potential of obestatin as muscle regenerator agent was assessed in Swiss mice wherein muscle damage was induced in the tibialis anterior and obestatin (300 nmol/kg weight) or the corresponding vehicle (PBS) was later locally administered. The muscles were extracted and analysed by immunoblot 48, 96, 168 and 240 h after the treatment (n=5 per study time).

[2] = system: damaged tibialis anterior of mouse; experiment: Histological (hematoxylin/eosin) analysis of muscle regeneration in damaged tibialis anterior of mouse; type: in vivo, Swiss mice; details: 300 nmol/kg weight local
Protocol: FIG. 9. Immunohistochemical analysis of the effect of the exogenous administration of obestatin on the capacity for muscle regeneration in the damaged tibialis anterior of mouse (animal model). The images shown are representative of the sections of the damaged tibialis anterior muscle (hematoxylin/eosin staining) under the local exogenous administration of obestatin (300 nmol/kg/24 h) or PBS (control) 48, 96, 168 and 240 h after inducing the damage. The images show the area of damage and regeneration at the indicated times.
FIG. 10. Quantitative analysis of the areas of the regenerative fibres of the tibialis anterior 96 and 168 hours after inducing the damage and exogenous administration of obestatin or PBS (control). The analysis corresponds to the area of regeneration myofibers in the tibialis anterior. For this purpose, an immunohistochemical analysis was performed by staining with hematoxylin/eosin and later quantification of the area of the myofiber by the use of the ImageJ64 program (n=10 per group; mean±standard error; *, p<0.005).
The muscle samples were mounted in a cold freezing medium [Tragacanth; Santa Cruz Biotechnology (CA, USA)] and frozen in a mixture of nitrogen-isopentane. The tissue sections were obtained by serial cuts with a cryostat (10 μm) and were mounted in adhesion slides for histochemistry (Marienfeld, Lauda-Konigshofen, Germany). The sections fixed were stained with hematoxylin/eosin. The quantification of the area of the regenerative myofibers was performed by using ImageJ64 analysis software.
The mice (30 g; n=50) were maintained in 12 h light-darkness cycled with free access to standard diet and water. To induce the muscle damage, the tibialis anterior muscle (TA) was extracted under anaesthesia and subjected to three cycles of damage due to cold contact applying along the length of the muscle a metal bar cooled in liquid nitrogen. The damaged muscles were treated locally with obestatin injection (300 nmol/kg weight) or the corresponding vehicle (PBS; control) during the times indicated in 24 h intervals. […]

[3] = system: damaged tibialis anterior of mouse; experiment: Creatine kinase levels in serum of mice with damaged tibialis anterior; type: in vivo, Swiss mice; details: 300 nmol/kg weight local; 96 h
Protocol: FIG. 12. Analysis of the creatine kinase levels in serum of mice wherein damage was induced in the tibialis anterior muscle and they were treated locally with obestatin or vehicle (PBS) during 96 h. The creatine kinase levels are expressed as IU/L (International units/litre for the three study groups: control without damage, damage control (PBS) and treatment with obestatin (n=10 per group; mean±standard error; *, #, p<0.005).
as §5, with “After the indicated times, the mice were sacrificed by cervical dislocation under anaesthetic treatment and the tissues were extracted for immunoblot and immunohistochemical analyses.” left out

## obestatin
Akt
  obestatin concentration at which activation of Akt [pAkt(S473)] was observed: 0.1 nM
Akt; dose-response
  obestatin concentration at which pAkt(S473) phosphorylation levels reached saturable values: 5 nM
Akt; obestatin 5 nM
  time post-stimulation of maximum pAkt(S473) levels: 10 min
ERK 1/2
  obestatin concentration at which activation of ERK 1/2 [pERK1/2(T202/Y204)] was observed: 0.1 nM
ERK 1/2; dose-response
  obestatin concentration at which pERK1/2(T202/Y204) phosphorylation levels reached saturable values: 5 nM
ERK 1/2; obestatin 5 nM
  time post-stimulation of maximum pERK1/2(T202/Y204) levels: 10 min
[1]
  expression times of each of the factors analysed (Pax-7, MyoD, myogenin, eMHC): acceleration
[1]; 48, 96, 168 and 240 h
  MyoD levels in treated muscles in relation to control muscles: significantly higher
  Pax-7 levels in treated muscles in relation to control muscles: significantly higher
  eMHC levels in treated muscles in relation to control muscles: significantly higher
  myogenin levels in treated muscles in relation to control muscles: significantly higher
[2]; 48, 96, 168 and 240 h
  regenerative process (restructuring of the myofibers in the area of damage) in relation to controls: acceleration
[2]; 96 and 168 h after the treatment
  area of the regenerative fibres in the tibialis anterior in relation to controls: significant increase
[2]; hematoxylin/eosin sections
  calibre of the regenerative myofibers in relation to controls: significant increase
[3]
  creatine kinase serum levels in relation to muscle damage controls (PBS): significant reduction
